From patent publication US20070209950A1, “METHODS AND DEVICES FOR THE DETECTION AND MEASUREMENT OF FREE METALS IN FLUIDS AND METHODS FOR DIAGNOSING METAL-RELATED DISEASES AND FOR DETERMINING PHARMACOLOGIC DOSING REGIMENS” (priority 2006, published 2007)

Tests used:
[1] = molecular target: apo-glucose dehydrogenase (Acinetobacter calcoaceticus, UniProt P13650); test: activation of apo-glucose dehydrogenase by co-factor PQQ, electrochemical current; format: biochemical
Excerpt: FIG. 8 is a schematic showing a specific example of glucose being oxidized to gluconone by the holo-enzyme glucose dehydrogenase. In this case the co-enzyme is PQQ and a common mediator used to transducer electrical current through a working electrode is ferrocene. This is another type of configuration in glucometers today.
FIG. 9 is a schematic showing the loss of glucose dehydrogenase activity when the specific co-factor PQQ is removed. As an apo-enzyme, […] is not capable of oxidizing glucose. As a result, transduction of current is blocked.
PQQ was added to apo-enzyme in doses ranging from 100 pM to 100 nM. […] In this case, distinctions were observed by 60 sec.

ceruloplasmin = molecular target: T1, ceruloplasmin (Homo sapiens, UniProt P00450); details: order of magnitude; read-out: Kd for copper bound to ceruloplasmin; cited from earlier work
T1 sequence (P00450 20-1065): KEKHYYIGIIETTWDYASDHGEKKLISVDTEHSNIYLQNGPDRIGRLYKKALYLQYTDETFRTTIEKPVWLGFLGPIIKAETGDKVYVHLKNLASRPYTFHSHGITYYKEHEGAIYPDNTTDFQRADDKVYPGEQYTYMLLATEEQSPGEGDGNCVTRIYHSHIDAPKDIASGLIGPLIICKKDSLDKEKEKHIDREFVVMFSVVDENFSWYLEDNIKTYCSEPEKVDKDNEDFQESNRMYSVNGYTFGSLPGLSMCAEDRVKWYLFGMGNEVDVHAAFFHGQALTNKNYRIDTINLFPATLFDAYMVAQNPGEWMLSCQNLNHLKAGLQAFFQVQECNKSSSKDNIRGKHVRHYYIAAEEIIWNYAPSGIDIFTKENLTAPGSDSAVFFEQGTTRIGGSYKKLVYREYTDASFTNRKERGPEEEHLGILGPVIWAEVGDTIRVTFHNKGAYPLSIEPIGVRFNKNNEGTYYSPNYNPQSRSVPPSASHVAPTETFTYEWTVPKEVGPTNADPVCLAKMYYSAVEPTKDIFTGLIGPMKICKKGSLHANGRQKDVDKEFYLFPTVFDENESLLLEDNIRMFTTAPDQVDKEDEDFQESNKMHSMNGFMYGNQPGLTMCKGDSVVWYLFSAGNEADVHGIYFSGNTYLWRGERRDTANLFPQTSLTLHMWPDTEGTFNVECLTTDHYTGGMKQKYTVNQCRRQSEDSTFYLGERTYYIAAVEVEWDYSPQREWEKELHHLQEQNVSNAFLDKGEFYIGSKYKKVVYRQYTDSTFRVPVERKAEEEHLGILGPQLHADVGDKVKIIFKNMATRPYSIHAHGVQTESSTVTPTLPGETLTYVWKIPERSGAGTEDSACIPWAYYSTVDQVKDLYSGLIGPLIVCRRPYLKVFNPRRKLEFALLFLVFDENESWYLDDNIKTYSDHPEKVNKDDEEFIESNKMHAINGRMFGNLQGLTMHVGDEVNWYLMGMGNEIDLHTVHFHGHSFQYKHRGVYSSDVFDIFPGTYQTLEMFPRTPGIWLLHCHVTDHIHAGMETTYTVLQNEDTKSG

Chain of apo-glucose dehydrogenase (P13650 25-478): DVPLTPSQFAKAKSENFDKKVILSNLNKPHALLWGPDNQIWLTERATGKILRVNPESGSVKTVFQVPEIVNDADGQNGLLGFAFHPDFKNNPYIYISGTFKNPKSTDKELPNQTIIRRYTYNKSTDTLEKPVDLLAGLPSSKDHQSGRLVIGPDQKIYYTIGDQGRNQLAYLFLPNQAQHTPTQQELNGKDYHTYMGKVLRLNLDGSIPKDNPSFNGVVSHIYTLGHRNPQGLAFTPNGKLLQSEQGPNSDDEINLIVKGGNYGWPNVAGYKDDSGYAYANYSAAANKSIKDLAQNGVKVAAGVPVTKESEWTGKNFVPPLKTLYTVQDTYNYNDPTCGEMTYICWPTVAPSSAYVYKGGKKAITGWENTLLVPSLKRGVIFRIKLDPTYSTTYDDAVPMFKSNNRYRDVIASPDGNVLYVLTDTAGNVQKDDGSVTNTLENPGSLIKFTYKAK

O=C(O)c1cc(C(=O)O)c2c(n1)C(=O)C(=O)c1cc(C(=O)O)[nH]c1-2 [PQQ]
outward current on addition of co-factor ([1]; FIG. 10, with PQQ): outward current (more negative) results | outward current on addition of co-factor ([1]; FIG. 17, PQQ added to apo-enzyme in doses from 100 pM to 100 nM): increase in the measurement of outward current

[Cu] [copper]
Kd (ceruloplasmin): ~0.01 nM
